Results reported in ChEMBL document CHEMBL1201862, “PubChem BioAssay data set” (2004).
Where a name gives a salt, the structure may show the parent alone. Activity calls are given as the source filed them.

Tests used:
Protein Rev = Protein Rev (Human immunodeficiency virus type 1 group M subtype B (isolate HXB2)(HIV-1), UniProt P04618); assay: blockers of HIV Rev/RRE RNA complex – biochemical, fluorescence polarization, HIV-1, dose response (AID 434976); parameters: species or system Human immunodeficiency virus 1
[1] = target: Female germline-specific tumor suppressor gld-1 (Caenorhabditis elegans, UniProt Q17339); assay: blockers of GLD-1/TGE RNA complex formation – biochemical, fluorescence polarization, C. elegans, dose response (AID 2802);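 further: fluorescence polarization of labeled TGE RNA bound by purified gld-1 protein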
X-box-binding protein 1 = X-box-binding protein 1 (Homo sapiens, UniProt P17861); type: functional, Cricetulus griseus;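 further: confirmatory dose-response counter-screen serving a CHOP assay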
Fatty acid synthase [2] = target: T1, Fatty acid synthase (Homo sapiens, UniProt P49327); assay: inhibition of human FAS-TE enzyme activity – biochemical, endpoint fluorescence intensity, uHTS hits, dose response (AID 624327); type: functional;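 further: fluorescence from hydrolysis of an O-methyl fluorescein acyl ester substrate by the enzyme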
T1 sequence (P49327 whole entry): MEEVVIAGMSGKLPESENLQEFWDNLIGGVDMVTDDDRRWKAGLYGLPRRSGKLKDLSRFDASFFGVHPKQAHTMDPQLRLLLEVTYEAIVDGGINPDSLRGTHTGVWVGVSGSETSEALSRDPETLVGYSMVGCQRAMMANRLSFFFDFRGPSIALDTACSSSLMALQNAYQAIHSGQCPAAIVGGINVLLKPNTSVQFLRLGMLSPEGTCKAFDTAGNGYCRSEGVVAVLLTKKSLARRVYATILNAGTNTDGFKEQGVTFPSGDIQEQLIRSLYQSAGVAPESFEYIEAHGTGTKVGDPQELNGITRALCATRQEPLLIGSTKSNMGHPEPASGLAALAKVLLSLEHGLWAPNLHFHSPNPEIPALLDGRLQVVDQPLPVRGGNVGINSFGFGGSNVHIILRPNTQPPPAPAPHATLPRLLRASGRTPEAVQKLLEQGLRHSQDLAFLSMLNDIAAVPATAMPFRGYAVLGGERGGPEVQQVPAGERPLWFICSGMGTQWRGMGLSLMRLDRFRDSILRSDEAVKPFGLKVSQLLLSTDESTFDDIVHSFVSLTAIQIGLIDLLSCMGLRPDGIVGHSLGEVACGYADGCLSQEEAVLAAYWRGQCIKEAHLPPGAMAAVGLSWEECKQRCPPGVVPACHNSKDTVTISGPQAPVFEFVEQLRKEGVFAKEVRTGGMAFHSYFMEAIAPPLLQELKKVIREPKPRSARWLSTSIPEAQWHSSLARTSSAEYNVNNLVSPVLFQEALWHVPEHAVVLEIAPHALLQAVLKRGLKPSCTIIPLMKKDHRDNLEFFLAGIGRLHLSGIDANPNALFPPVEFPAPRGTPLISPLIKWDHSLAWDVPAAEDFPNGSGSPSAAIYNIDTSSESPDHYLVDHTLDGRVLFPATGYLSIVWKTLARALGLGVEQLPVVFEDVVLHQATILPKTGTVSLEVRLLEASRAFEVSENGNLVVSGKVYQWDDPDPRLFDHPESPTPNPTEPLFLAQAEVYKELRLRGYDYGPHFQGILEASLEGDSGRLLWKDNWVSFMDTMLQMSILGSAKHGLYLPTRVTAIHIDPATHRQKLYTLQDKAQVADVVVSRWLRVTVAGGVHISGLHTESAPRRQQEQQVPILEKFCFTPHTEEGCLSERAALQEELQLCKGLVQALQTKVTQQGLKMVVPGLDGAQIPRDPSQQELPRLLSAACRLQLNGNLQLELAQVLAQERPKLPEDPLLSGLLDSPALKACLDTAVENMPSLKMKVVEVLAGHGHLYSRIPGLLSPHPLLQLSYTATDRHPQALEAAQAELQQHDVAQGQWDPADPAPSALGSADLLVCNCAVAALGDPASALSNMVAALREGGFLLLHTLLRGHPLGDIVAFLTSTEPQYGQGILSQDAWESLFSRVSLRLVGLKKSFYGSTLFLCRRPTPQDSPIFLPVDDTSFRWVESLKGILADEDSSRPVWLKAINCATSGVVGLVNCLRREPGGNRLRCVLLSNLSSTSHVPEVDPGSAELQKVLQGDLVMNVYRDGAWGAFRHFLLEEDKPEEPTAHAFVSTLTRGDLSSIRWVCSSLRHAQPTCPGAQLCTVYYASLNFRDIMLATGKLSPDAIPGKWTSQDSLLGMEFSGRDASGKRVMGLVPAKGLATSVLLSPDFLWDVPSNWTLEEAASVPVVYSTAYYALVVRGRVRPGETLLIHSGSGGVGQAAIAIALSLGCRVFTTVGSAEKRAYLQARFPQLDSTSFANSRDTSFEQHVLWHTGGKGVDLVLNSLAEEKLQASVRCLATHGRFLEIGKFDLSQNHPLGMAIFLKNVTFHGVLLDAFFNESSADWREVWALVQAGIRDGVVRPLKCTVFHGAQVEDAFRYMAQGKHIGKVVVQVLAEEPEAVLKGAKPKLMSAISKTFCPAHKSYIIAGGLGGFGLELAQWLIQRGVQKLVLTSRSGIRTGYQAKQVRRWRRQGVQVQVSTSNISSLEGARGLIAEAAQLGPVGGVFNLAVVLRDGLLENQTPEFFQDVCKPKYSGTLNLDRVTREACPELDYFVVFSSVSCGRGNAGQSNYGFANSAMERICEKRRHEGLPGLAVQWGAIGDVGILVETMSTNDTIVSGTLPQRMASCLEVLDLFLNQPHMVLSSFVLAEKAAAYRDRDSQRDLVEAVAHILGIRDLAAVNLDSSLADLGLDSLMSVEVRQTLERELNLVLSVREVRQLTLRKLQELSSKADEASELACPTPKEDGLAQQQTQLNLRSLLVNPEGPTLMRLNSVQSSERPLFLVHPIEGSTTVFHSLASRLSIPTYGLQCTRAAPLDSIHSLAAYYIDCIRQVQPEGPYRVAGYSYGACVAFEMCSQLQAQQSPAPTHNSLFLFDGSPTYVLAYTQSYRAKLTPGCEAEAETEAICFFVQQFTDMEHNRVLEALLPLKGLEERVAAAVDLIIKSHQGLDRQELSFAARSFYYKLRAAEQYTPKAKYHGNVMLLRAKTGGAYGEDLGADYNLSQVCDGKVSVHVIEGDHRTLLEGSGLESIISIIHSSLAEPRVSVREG

Fatty acid synthase [3] = target: T1, Fatty acid synthase; assay: inhibition of human FAS-TE enzyme activity – biochemical, kinetic fluorescence intensity, dose response (AID 624326); type: functional;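 further: rate of fluorescence rise from hydrolysis of a fluorogenic O-methyl fluorescein ester substrate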
[4] = target: Dual specificity protein phosphatase 3 (Homo sapiens, UniProt P51452); assay: inhibition constants for human DUSP3 – biochemical, colorimetric, SAR follow-up (AID 2004)
Dual specificity protein phosphatase 3, sequence (P51452 whole entry): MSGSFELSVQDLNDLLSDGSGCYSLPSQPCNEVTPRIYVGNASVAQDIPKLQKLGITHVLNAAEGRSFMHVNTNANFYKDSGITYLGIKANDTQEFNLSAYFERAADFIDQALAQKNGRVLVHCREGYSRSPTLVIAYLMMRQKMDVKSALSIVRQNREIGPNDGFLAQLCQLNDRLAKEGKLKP

Bcl-2-like protein 10 = Bcl-2-like protein 10 (Homo sapiens, UniProt Q9HD36); assay: Bcl-B/TR3 peptide binding disruption – biochemical, fluorescence polarization, FITC-TR3 peptide, selectivity assay for Bfl-1 inhibitor project, primary screen (AID 748);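 further: fluorescence polarization from a fluorescein-labelled TR3 peptide binding purified Bcl-B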
[5] = target: T2, Voltage-dependent T-type calcium channel subunit alpha-1H (Homo sapiens, UniProt O95180); type: functional
T2 sequence (O95180 whole entry): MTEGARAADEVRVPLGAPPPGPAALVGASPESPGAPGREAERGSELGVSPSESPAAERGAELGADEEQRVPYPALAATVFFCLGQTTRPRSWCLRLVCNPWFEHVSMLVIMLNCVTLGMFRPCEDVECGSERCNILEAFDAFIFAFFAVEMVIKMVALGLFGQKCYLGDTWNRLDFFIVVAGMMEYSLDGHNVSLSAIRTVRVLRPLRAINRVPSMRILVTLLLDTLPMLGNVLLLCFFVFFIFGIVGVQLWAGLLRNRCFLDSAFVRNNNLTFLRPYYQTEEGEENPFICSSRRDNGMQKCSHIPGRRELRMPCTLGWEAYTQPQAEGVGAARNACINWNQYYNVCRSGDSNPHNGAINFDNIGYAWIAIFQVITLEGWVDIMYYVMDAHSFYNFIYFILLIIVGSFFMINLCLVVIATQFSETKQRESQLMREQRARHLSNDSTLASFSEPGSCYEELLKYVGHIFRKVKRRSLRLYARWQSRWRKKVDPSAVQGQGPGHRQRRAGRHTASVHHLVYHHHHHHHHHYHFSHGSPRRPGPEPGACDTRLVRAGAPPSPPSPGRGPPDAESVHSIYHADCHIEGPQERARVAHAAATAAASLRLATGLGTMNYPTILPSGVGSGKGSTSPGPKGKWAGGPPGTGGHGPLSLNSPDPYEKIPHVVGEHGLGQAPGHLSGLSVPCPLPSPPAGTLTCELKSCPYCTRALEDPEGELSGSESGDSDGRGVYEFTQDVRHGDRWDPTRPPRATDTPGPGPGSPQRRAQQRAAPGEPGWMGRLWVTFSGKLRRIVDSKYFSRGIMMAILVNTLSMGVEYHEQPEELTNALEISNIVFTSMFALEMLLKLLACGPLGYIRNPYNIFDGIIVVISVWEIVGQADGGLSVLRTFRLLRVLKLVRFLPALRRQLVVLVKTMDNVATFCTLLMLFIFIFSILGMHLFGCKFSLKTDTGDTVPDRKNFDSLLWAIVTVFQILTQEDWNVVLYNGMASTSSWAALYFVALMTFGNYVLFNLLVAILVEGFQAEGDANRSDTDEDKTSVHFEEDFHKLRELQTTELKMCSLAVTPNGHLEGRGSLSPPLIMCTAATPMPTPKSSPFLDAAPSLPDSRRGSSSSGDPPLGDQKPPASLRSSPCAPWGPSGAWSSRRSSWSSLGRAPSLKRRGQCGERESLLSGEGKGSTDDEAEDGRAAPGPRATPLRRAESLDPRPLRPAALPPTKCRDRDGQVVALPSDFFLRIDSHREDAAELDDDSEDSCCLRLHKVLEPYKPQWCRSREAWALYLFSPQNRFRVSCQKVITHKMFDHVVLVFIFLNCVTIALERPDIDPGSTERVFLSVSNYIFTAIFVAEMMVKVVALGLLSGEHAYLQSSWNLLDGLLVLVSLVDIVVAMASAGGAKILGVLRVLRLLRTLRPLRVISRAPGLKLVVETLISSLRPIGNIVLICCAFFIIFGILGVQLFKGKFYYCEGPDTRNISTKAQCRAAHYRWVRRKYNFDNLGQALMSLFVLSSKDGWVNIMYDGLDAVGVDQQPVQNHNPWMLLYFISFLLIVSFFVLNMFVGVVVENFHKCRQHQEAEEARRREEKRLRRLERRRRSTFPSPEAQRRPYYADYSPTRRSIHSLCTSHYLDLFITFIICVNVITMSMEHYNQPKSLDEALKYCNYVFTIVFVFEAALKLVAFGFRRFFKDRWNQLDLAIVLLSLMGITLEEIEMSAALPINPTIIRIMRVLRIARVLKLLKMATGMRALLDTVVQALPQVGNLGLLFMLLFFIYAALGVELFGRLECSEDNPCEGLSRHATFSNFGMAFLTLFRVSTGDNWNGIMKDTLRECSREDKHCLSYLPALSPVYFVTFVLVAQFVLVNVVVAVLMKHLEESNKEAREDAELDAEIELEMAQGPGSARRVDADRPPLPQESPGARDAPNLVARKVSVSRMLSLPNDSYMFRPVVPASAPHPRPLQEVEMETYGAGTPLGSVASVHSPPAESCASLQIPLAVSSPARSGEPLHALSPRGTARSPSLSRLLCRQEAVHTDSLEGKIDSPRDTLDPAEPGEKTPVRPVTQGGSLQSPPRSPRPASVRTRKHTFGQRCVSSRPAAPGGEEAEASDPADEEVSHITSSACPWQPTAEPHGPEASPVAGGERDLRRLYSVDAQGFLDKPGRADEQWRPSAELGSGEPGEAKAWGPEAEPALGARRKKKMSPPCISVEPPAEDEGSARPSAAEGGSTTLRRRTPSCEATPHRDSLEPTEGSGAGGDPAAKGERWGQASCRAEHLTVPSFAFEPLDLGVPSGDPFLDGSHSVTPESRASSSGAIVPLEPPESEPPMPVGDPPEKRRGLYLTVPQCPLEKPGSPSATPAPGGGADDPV

[6] = target: T2, Voltage-dependent T-type calcium channel subunit alpha-1H; assay: Inhibitors of T-Type Calcium Channels. [Related pubchem assays (depositor defined):AID449739, AID463087, AID489005, AID493041, AID504579, AID504584, AID504619, AID504628]; type: functional
[7] = target: T3, Endoribonuclease toxin MazF (Escherichia coli K-12, UniProt P0AE70); assay: activation of MazEF endoribonuclease cleavage – biochemical, fluorescence, single-stranded RNA substrate, uHTS hits, dose response (AID 588481); type: functional
T3 sequence (P0AE70 whole entry): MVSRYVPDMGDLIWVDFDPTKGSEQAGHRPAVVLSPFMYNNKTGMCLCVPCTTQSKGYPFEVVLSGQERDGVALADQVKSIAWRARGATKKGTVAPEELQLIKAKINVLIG

[8] = target: T3, Endoribonuclease toxin MazF; assay: substrate-only fluorescence increase artefacts – biochemical, single-stranded RNase substrate, counter-screen for MazEF activator project, dose response (AID 588502); type: functional
cells [9] = type: functional, cell-based
[10] = HPDE-C7 pancreatic duct cell viability loss – fluorescence, HTS (AID 430); type: functional, cell-based; settings: Homo sapiens
[11] = viability loss of HPDE-C7K cells – cell-based, fluorescence, HTS, primary screen (AID 431); type: functional; settings: Homo sapiens
cells [12] = type: functional, cell-based; remark: listed apart in the source
Hexokinase HKDC1 = target: T4, Hexokinase HKDC1 (Homo sapiens, UniProt Q2TB90); assay: inhibition of HKDC1 glucose phosphorylation – biochemical, W721R variant, dose response (AID 504729); type: functional
T4 sequence (Q2TB90 whole entry): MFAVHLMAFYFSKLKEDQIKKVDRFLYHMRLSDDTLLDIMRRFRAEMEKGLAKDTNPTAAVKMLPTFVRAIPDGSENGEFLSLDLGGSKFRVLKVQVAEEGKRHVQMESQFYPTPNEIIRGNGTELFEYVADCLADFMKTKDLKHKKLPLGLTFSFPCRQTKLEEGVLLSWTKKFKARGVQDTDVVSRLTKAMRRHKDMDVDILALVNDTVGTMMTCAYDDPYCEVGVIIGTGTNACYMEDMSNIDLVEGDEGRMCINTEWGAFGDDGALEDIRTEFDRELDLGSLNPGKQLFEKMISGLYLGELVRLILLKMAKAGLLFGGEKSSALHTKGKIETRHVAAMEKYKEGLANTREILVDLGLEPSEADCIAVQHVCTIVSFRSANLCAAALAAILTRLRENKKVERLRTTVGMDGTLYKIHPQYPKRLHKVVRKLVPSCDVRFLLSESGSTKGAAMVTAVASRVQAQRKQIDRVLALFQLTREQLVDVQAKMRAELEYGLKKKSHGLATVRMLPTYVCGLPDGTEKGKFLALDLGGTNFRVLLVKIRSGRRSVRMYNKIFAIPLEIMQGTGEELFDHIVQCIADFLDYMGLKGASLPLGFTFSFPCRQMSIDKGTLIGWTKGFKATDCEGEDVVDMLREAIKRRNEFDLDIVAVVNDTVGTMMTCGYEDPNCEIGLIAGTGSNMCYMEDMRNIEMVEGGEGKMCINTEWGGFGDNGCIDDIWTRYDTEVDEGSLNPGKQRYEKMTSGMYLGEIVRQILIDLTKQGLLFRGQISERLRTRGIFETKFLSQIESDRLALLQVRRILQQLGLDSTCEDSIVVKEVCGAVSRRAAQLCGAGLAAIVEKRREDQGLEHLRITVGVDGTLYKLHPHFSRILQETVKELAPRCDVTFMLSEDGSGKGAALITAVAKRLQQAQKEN

[13] = HEK-293T cell viability reduction – luminescence, B-cell screen hits, cytotoxicity control for BCR NF-kB inhibitor project, dose response (AID 489021); type: functional, cell-based;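 further: HEK-293T cells carrying an NF-kB luciferase reporter; cells exposed to compound for about 14 hours before viability readout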
[14] = Cytotoxicity screening for potential Inhibitors of Bacterial Capsule Biogenesis. [Related pubchem assays (depositor defined):AID488970]; type: functional
Vero = assay: cells; type: functional, cell-based; settings: Chlorocebus sabaeus
[15] = target: 26S proteasome non-ATPase regulatory subunit 14 (Homo sapiens, UniProt O00487); assay: inhibition of proteasome subunit RPN11 – biochemical, fluorescence polarization, uHTS hits, confirmation (AID 602368); type: functional
[16] = target: 72 kDa type IV collagenase (Homo sapiens, UniProt P08253); assay: Dose Response validation of uHTS RPN11 inhibitor hits using a MMP-2 Fluorescence assay.; type: functional
Prothrombin = Prothrombin (Bos taurus, UniProt P00735); assay: thrombin protease inhibitors – biochemical, fluorescence polarization, uHTS hits, dose response (AID 602369); type: functional
[17] = target: T5, Small ubiquitin-related modifier 1 (Homo sapiens, UniProt P63165); assay: SUMO1 protein interaction blockers, potency – biochemical, fluorescence polarization, uHTS hits, dose response (AID 624382); type: functional; settings: read-out: IC50_Mean
T5 sequence (P63165 whole entry): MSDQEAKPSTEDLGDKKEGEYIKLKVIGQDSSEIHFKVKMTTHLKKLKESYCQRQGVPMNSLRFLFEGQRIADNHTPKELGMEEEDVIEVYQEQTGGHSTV

[18] = target: T5, Small ubiquitin-related modifier 1; assay: SUMO1 protein-protein binding blockers, potency – biochemical, FRET, dose response (AID 624383); type: functional; settings: read-out: IC50_Mean
Wee1-like protein kinase = Wee1-like protein kinase (Homo sapiens, UniProt P30291); assay: HeLa cell cycle G2/M accumulation – FACS, mechanism study for Wee1 degradation inhibitor project, late-stage follow-up, panel member Wee1 Degradation (AID 2088)
[19] = target: G2/mitotic-specific cyclin-B1 (Homo sapiens, UniProt P14635); assay: HeLa cell cycle G2/M accumulation – FACS, mechanism study for Wee1 degradation inhibitor project, late-stage follow-up, panel member Cyclin B Degradation (AID 2088)
Large T antigen = Large T antigen (Simian virus 40, UniProt P03070); type: functional, Betapolyomavirus macacae;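 further: Confirmatory-stage PubChem screen for compounds that inhibit SV40 T antigen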
[20] = target: Cyclin-dependent kinase 5/CDK5 activator 1 (Homo sapiens, UniProt Q00535); assay: blockade of human CDK5 activity – biochemical, cherry-picked samples, set 2, dose response (AID 504545)
[21] = target: Dual specificity tyrosine-phosphorylation-regulated kinase 1A (Rattus norvegicus, UniProt Q63470); type: biochemical, Homo sapiens
[22] = target: T6, Long-chain-fatty-acid--AMP ligase FadD28 (Mycobacterium tuberculosis, UniProt P9WQ59); assay: Fluorescence polarization aasay to screen for inhibitors that compete for the binding of FadD28 to a bisubstrate Measured in Biochemical System Using Plate Reader - 2147-01_Inhibitor_Dose_CherryPick_Activity.; type: functional, Mycobacterium tuberculosis H37Rv
T6 sequence (P9WQ59 whole entry): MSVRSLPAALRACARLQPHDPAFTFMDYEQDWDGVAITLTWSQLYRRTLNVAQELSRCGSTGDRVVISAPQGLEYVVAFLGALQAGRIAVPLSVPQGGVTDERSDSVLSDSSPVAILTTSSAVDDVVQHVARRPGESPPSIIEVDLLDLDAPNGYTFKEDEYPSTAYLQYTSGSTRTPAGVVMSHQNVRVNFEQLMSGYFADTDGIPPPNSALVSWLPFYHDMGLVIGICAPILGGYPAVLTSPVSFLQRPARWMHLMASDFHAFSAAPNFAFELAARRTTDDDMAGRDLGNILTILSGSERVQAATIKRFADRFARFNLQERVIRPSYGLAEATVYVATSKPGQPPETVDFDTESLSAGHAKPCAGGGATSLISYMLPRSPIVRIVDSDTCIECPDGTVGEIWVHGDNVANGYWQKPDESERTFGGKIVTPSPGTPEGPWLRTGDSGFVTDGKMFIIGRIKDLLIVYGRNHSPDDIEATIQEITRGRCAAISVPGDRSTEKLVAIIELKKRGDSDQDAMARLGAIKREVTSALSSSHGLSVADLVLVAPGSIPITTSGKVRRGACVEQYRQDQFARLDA

Cytochrome P450 3A4 = Cytochrome P450 3A4 (Homo sapiens, UniProt P08684); settings: Potency;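 further: confirmatory qHTS run detecting inhibitors and substrates of CYP3A4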
Cytochrome P450 1A2 = target: T7, Cytochrome P450 1A2 (Homo sapiens, UniProt P05177);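 further: PubChem cytochrome P450 panel assay, CYP1A2 panel member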
T7 sequence (P05177 whole entry): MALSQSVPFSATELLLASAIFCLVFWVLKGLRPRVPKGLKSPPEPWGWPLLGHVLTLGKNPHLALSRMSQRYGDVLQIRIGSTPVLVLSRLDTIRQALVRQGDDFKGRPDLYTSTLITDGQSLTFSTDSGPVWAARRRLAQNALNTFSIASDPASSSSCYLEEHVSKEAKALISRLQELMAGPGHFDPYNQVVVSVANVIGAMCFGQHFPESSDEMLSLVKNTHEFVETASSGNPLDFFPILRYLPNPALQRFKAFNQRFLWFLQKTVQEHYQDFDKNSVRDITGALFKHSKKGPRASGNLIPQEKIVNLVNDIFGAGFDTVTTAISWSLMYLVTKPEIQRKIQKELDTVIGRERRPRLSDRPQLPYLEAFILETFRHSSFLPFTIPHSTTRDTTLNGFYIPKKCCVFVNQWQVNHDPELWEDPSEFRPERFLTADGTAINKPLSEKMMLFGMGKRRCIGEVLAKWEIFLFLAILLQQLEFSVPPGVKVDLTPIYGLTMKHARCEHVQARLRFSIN

[23] = target: NACHT, LRR and PYD domains-containing protein 3 (Homo sapiens, UniProt Q96P20); assay: NALP3 inhibitors in yeast, dose response, luminescent (AID 488799); type: functional

With `CC(OC(=O)/C(C#N)=C/c1ccc(N(C)C)cc1)C(=O)NCc1ccco1` (stereo not drawn) the IC50 (Protein Rev) was > 75.5 µM (not active) and the IC50 [1] was 6.63 µM (active).
In the case of `CCCCCC1CC(CC(=O)Nc2ccc([N+](=O)[O-])cc2)C(=O)O1` (stereo not drawn), the “Absolute IC50 (XBP1)” value (X-box-binding protein 1) is reported as less than 10 µM, the IC50 (Fatty acid synthase [2]) is reported as 16.8 µM (active) and the IC50 (Fatty acid synthase [3]) is reported as 12.5 µM (active).
For `Cc1cc2c(nc3s/c(=C/c4ccccc4)c(=O)n32)c(Br)c1C`, the Ki [4] was 28.5 µM (inactive).
In the case of `Cc1ccc2cccc(S(=O)(=O)Nc3ccc4c(c3)OCO4)c2n1`, the IC50 (Bcl-2-like protein 10) is reported as > 100 µM (inactive).
With `CCN(CC)c1ccc2cc(-c3nnc(-c4ccccc4)o3)c(=O)oc2c1` the EC50 [5] was 0.931 µM (active), the EC50 [6] was 3.19 µM (active) and the EC50 [7] was > 99 µM (inactive). The EC50 [8] was > 99 µM (inactive).
In the case of `Cc1ccc(C)c(-n2nnnc2Sc2nnnn2-c2ccccc2)c1`, the EC50 (cells [9]) is reported as > 350 µM (not active), the EC50 [10] is reported as 8.15 µM (active) and the EC50 [11] is reported as 9.95 µM (active). The EC50 (cells [12]) was > 350 µM (not active), the IC50 (Hexokinase HKDC1) was 22.6 µM (inactive) and the IC50 [13] was > 80 µM (inactive).
For `Cc1ccccc1NC(=NCCCN1CC1)Nc1ccccc1C`, the CC50 [14] was 7.68 µM (active), the IC50 (Vero) was 20.3 µM (active) and the IC50 [15] was 12.5 µM (active). The IC50 [16] was > 100 µM (inactive), the IC50 (Prothrombin) was 30 µM (active) and the IC50 [17] was > 66.6 µM (inactive). The IC50 [18] was 2.8 µM (active).
With `COc1ccc(NC(=O)CCCOc2cc(=O)n(C)c3ccccc23)cc1Cl` the EC50 (Wee1-like protein kinase) was > 49.7 µM (inactive) and the EC50 [19] was > 49.7 µM (inactive).
With `O=C1NC(=O)C(c2ccccc2[N+](=O)[O-])=C1Nc1ccc(O)c(Cl)c1` the IC50 (Large T antigen) was 55.4 µM (active), the AC50 [20] was 5.56 µM (active) and the AC50 [21] was 3.11 µM (active). For the same compound, the AC50 [22] was 89.1 µM (active), the AC50 (Cytochrome P450 3A4) was 12.6 µM (inconclusive) and the AC50 (Cytochrome P450 1A2) was 31.6 µM (inconclusive).
With `CC(N)C(=O)OC(C)(C)Cc1ccc(Cl)cc1` (stereo not drawn) [ALAPROCLATE HYDROCHLORIDE] the IC50 [23] was 8.02 µM (active).
